Laboratory results published in PubChem BioAssay (NCI).
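Cultured in 96-well plates, cells were exposed to test compound for 48 hours across five concentrations. Abbreviation: GI50, concentration required for 50% inhibition of growth. TGI is the concentration that stops growth completely.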

What was measured:
Assay in all cases: growth of human tumour cells (NCI), 48 h
[1] = test system: EKVX NSCLC
[2] = test system: OVCAR-5 ovarian
[3] = test system: A498 renal
[4] = test system: SK-MEL-2 melanoma
[5] = test system: A549 NSCLC
[6] = test system: K-562 leukemia
[7] = test system: UO-31 renal
[8] = test system: SF-268 CNS
[9] = test system: HOP-92 NSCLC
[10] = test system: CAKI-1 renal

| Structure (SMILES) | TGI [1] [µM] | TGI [2] [µM] | TGI [3] [µM] | TGI [4] [µM] | TGI [5] [µM] | TGI [6] [µM] | TGI [7] [µM] | TGI [8] [µM] | TGI [9] [µM] | TGI [10] [µM] | GI50 [1] [µM] | GI50 [2] [µM] | GI50 [3] [µM] | GI50 [4] [µM] | GI50 [5] [µM] | GI50 [6] [µM] | GI50 [7] [µM] | GI50 [8] [µM] | GI50 [9] [µM] | GI50 [10] [µM] |
| --- | --- | --- | --- | --- | --- | --- | --- | --- | --- | --- | --- | --- | --- | --- | --- | --- | --- | --- | --- | --- |
| O=NN(CCCl)C(=O)NC1CCC(CC2CCC(NC(=O)N(CCCl)N=O)CC2)CC1 (stereo not given) | > 100 | > 100 | 93.9 | > 100 | > 100 | > 100 | 99.9 | > 52.4 | > 76.6 | > 100 | – | – | – | – | – | – | – | – | – | – |
| CCN(c1cc(C#CCN2CCOCC2)cc(C(=O)NCc2c(C)cc(C)[nH]c2=O)c1C)C1CCC(N(C)CCOC)CC1 (stereo not given) | > 100 | > 100 | > 100 | > 100 | > 100 | > 100 | > 100 | > 100 | > 100 | > 100 | > 100 | > 100 | > 100 | > 100 | > 100 | > 100 | > 100 | > 100 | > 100 | > 100 |
| Cn1c(=O)c2/c(n(C)c1=O)=N\C=c1\c(=O)n(C)c(=O)n(C)\c1=N\C=2 | > 100 | > 100 | > 100 | > 100 | > 100 | > 100 | > 100 | > 100 | > 100 | > 100 | – | – | – | – | – | – | – | – | – | – |
| CCCCCCCCCCCCCCCCCC(=O)Nc1ccn(C2OC(CO)C(O)C2O)c(=O)n1 (stereo not given) | > 100 | > 100 | 99 | > 100 | > 100 | > 100 | > 79.3 | > 100 | > 100 | > 100 | – | – | – | – | – | – | – | – | – | – |
| CCN(CC)c1ccc(/C=C/C=C2\NC(=O)NC2=O)cc1 | > 100 | 98.4 | 6.55 | 53.6 | 32.7 | > 100 | > 100 | > 100 | 24.2 | > 100 | 3.77 | 11.1 | 1.26 | 3.5 | 3.69 | 3.7 | 7.97 | 8.51 | 1.74 | 2.65 |
| Oc1c(CN2CCN(c3ccccc3)CC2)cc(Br)c2cccnc12 | > 29.3 | > 67.4 | > 100 | 42 | > 100 | > 40.8 | > 30.5 | > 71 | 30.8 | > 100 | – | – | – | – | – | – | – | – | – | – |
| O=c1oc2c(C(F)(F)F)cccc2cc1-c1csc(Nc2ccc(OCCF)cc2)n1 | > 100 | > 100 | 20.9 | > 39.9 | 18.8 | > 100 | 22.5 | > 60.5 | 3.88 | > 34.7 | 0.0556 | 0.231 | 0.0353 | 0.0593 | 0.0391 | 0.0348 | 0.0785 | 0.086 | 0.0975 | 0.0521 |
| CC(C)(C)c1ccc(NS(=O)(=O)c2ccc3nc(NC(=O)c4cnccn4)[nH]c3c2)cc1 | 18.3 | 19 | 5.98 | 19 | 16.5 | > 100 | 10.7 | 19.2 | 5.92 | 17.5 | 5.01 | 5.61 | 1.75 | 4.56 | 2.58 | 2.38 | 2.08 | 4.29 | 1.5 | 4.64 |
| CCc1cccc(C)c1NC(=O)CC1C(=O)Nc2ccccc2S1(=O)=O (stereo not given) | 41.9 | 56.4 | 58.3 | 53.5 | 35.2 | 14.7 | 27.7 | 39.4 | 31.8 | 31.2 | – | – | – | – | – | – | – | – | – | – |
| NNC(=O)C(=O)N/N=C(\CCC(=O)Nc1ccc(Cl)cc1)Cc1nc2ccccc2s1 | > 100 | > 100 | > 100 | > 100 | > 100 | > 100 | > 100 | > 100 | > 100 | > 100 | – | – | – | – | – | – | – | – | – | – |
| COc1ccc(Cn2cc3c(c2-c2cc(OC)c(OC)c(OC)c2)CCc2cnoc2-3)cc1 | > 100 | > 100 | 0.726 | > 100 | > 100 | > 32.3 | > 100 | > 100 | > 100 | > 100 | 0.397 | 3.68 | 0.162 | 3.24 | 0.372 | 0.111 | 0.542 | 1.18 | > 21.4 | 0.334 |
| CC(=O)c1cc(O)c2ccccc2c1O | 81.2 | 43 | > 100 | 38.7 | > 100 | 67.6 | 25.5 | 33.4 | 31 | 30.2 | 22.1 | 23.7 | 89.5 | 20.4 | 37.1 | 23.1 | 12.1 | 18.8 | 16.6 | 15.5 |
| Nc1ncc(-c2cccc(S(N)(=O)=O)c2)c2scc(-c3ccc(F)c(Cl)c3)c12 | > 24.2 | > 22.2 | 15.4 | 10.9 | > 25 | > 11.7 | 21 | > 25 | 18.4 | 21.4 | 7.75 | 9.09 | 5.73 | 5.88 | 6.76 | 0.705 | 2.22 | 5.93 | 5.14 | 5.51 |
| C=CC(COC(c1ccccc1)(c1ccccc1)c1ccccc1)N(CC)CC (stereo not given) | 19.2 | 22.1 | 23.5 | 13.9 | 18.4 | 5.86 | 16.4 | 24.9 | 18 | 11.8 | 4.48 | 6.66 | 8.25 | 4.68 | 5.16 | 2.07 | 3.54 | 11 | 4.5 | 2.43 |
